Target: PhdB (phenylacetate decarboxylase), sewage culture version (uncultured Acidobacteriota bacterium, UniProt A0A2P1UAH0)
Assay type: biochemical

Chain of PhdB (phenylacetate decarboxylase), sewage culture version (A0A2P1UAH0 1-839): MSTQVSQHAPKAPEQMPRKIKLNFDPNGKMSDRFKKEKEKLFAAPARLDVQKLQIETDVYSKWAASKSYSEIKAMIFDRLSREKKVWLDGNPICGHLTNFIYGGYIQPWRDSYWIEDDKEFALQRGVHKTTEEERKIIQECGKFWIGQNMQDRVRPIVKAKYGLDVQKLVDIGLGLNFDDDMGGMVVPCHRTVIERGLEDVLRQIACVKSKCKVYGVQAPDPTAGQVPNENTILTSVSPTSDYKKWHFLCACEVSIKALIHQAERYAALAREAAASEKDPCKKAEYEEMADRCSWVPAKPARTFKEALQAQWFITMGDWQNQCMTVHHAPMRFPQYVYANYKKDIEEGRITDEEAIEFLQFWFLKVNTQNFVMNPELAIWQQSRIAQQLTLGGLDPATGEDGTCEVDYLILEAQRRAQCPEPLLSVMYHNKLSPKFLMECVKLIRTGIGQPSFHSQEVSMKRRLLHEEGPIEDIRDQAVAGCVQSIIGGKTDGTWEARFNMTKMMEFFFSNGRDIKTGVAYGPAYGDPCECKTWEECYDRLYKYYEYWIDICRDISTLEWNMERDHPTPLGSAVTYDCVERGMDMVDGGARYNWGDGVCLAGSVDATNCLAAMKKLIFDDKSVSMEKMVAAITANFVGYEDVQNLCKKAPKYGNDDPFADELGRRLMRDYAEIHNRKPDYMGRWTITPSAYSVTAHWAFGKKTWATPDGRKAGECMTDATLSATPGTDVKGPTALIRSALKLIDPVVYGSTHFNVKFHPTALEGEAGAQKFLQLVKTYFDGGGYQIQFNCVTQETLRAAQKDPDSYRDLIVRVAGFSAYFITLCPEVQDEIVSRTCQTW

- Ki: 370 ± 30 µM
Compound: O=C(O)C(F)(F)c1ccccc1 [α,α‐difluorophenylacetate]
